The source made the active and inactive calls. The calls are words filed in the database; no cut-off is given here.

Common to all, as to assay type: functional, cell-based
For one assay, the system named is SK-MEL-1. The assay can be described thus: Antiproliferative activity against human SK-MEL1 cells by MTT assay. In general terms: Tetrazolium assays rely on reduction of a dye to a coloured formazan, in cell work by metabolically active cells.
Assay [1] deals with HL-60. The assay can be described thus: Antiproliferative activity against HL60 cells by MTT assay. The conditions noted are these: Homo sapiens.
Assay [2] relates to HL-60. Description: Induction of apoptosis in HL60 cells assessed as chromatin condensation at 3 uM after 4 hrs by fluorescence microscopy. The conditions noted are these: Homo sapiens.
The subject of assay [3] is U-937. Description: Induction of apoptosis in U937 cells assessed as DNA fragmentation at 3 uM after 4 hrs by gel electrophoresis. The conditions noted are these: Homo sapiens.
Assay [4] relates to HL-60. The assay can be described thus: Induction of apoptosis in HL60 cells assessed as caspase 3 cleavage at 3 uM by Western blot. The conditions noted are these: Homo sapiens. Background: In western blotting, separated proteins are transferred to a membrane and probed.
Assay [5] relates to HL-60. Description: Induction of apoptosis in HL60 cells assessed as DNA fragmentation at 3 uM after 4 hrs by gel electrophoresis. Conditions: Homo sapiens.
Assay [6] concerns HL-60. The assay can be described thus: Induction of apoptosis in HL60 cells assessed as cytochrome C release at 3 uM by Western blot. The conditions noted are these: Homo sapiens.
In assay [7] the test system is HL-60. The assay can be described thus: Induction of apoptosis in HL60 cells assessed as morphological changes at 3 uM after 4 hrs by phase contrast microscopy. The conditions noted are these: Homo sapiens.
Assay [8] deals with HL-60. The assay can be described thus: Induction of apoptosis in HL60 cells assessed as PARP cleavage at 3 uM by Western blot. The conditions noted are these: Homo sapiens.
The subject of assay [9] is U-937. Description: Induction of apoptosis in U937 cells assessed as caspase 3 cleavage at 3 uM by Western blot. The conditions noted are these: Homo sapiens.
In assay [10] the test system is U-937. The assay can be described thus: Antiproliferative activity against human U937 cells by MTT assay.

`C=C(Br)C(=O)Nc1ccc2[nH]c(C(=O)NCCCNc3nsc4nc5ccccc5n34)cc2c1`: the IC50 (as a rule, the point on the concentration scale where inhibition reaches its midpoint) in the assay with SK-MEL-1 amounted to 2090 nM; in the assay on HL-60 [1], 290 nM; with U-937 [10], 240 nM. For the same compound, the result with HL-60 [2], in the assay on U-937 [3], in the assay on HL-60 [4], in the assay on HL-60 [5], in the assay on HL-60 [6] and with HL-60 [7] was Active. Besides, the outcome in the assay with HL-60 [8] and in the assay on U-937 [9] was Active.
As to `C=C(Br)C(=O)Nc1ccc2sc(C(=O)NCCCCCCNc3nsc4nc5ccccc5n34)cc2c1`, the IC50 with SK-MEL-1 stood at 8040 nM; in the assay with HL-60 [1], 1240 nM; in the assay on U-937 [10] it was 910 nM. In addition, the result with HL-60 [2], in the assay on U-937 [3], in the assay with HL-60 [4], in the assay on HL-60 [5], in the assay on HL-60 [6] and in the assay on HL-60 [7] was Active. Further, the result in the assay on HL-60 [8] and with U-937 [9] was Active.
For `C=C(Br)C(=O)Nc1ccc2[nH]c(C(=O)NCCCCCCNc3nsc4nc5ccccc5n34)cc2c1`, the figures for the IC50 with SK-MEL-1, with HL-60 [1] and in the assay on U-937 [10] were 3020 nM, 550 nM and 400 nM, respectively. In addition, the result in the assay with HL-60 [2], in the assay on U-937 [3], in the assay with HL-60 [4], in the assay on HL-60 [5], with HL-60 [6] and in the assay on HL-60 [7] was Active. For the same compound, the result with HL-60 [8] and in the assay on U-937 [9] was Active.
As to `C=C(Br)C(=O)Nc1ccc2oc(C(=O)NCCCCCCNc3nsc4nc5ccccc5n34)cc2c1`, the IC50 with SK-MEL-1 was 8950 nM; with HL-60 [1], 1720 nM; in the assay on U-937 [10], 740 nM. In addition, the result in the assay on HL-60 [2], in the assay on U-937 [3], in the assay with HL-60 [4], in the assay on HL-60 [5], with HL-60 [6] and in the assay with HL-60 [7] was Active. The outcome in the assay on HL-60 [8] and in the assay with U-937 [9] was Active.
Consider `C=C(Br)C(=O)Nc1ccc2c(c1)cc(C(=O)NCCCCCCNc1nsc3nc4ccccc4n13)n2C`, for which the values for the IC50 in the assay on SK-MEL-1, with HL-60 [1] and with U-937 [10] were 4500 nM, 840 nM and 890 nM, respectively. In addition, the outcome in the assay on HL-60 [2], in the assay on U-937 [3], with HL-60 [4], with HL-60 [5], in the assay with HL-60 [6] and with HL-60 [7] was Active. The outcome in the assay on HL-60 [8] and with U-937 [9] was Active.

Source of the values: ChEMBL document CHEMBL1139187, “Hybrid molecules containing benzo[4,5]imidazo[1,2-d][1,2,4]thiadiazole and alpha-bromoacryloyl moieties as potent apoptosis inducers on human myeloid leukaemia cells” (Bioorg Med Chem Lett, 2007).
